This passage reports IC50 results from US8633204B2 (Pfizer Inc., priority 2006, dated 2014).

The structures appear in SMILES notation.

One assay has as its target PI3-Kα (Mus musculus (Mouse), UniProt P42337). Briefly: PI3-Kα Biochemical Assay (fluorescence polarization kinase assay). In outline: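 Co-expressed mouse p110/p85 PI3-Kα (4 nM stock) acting on PI(4,5)P2 (60 μM stock) with ATP/MgCl2 in HEPES pH 7.4 buffer, 35 min at room temperature, then EDTA stop. PI(3,4,5)P3 product detected by displacement of TAMRA-PIP3 from Grip1 PH domain (FP, 535/580 nm). IC50 from sigmoidal fit of % inhibition.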
In general terms: Fluorescence polarisation rises when a labelled molecule tumbles more slowly, as on binding a larger partner.

Assay [1] has as its system PI3-K in BT20 cells (phosphorylation of AKT at serine 473). Briefly: PI3-Kα Cellular Assay (AKT Ser473 phosphorylation ELISA in BT20 cells). It counts as cell-based, human. Particulars: 1 hour incubation. In outline:
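Cells seeded overnight in 0.5% FBS, then exposed 1 h at 37 °C to an 11-concentration 1:3 dilution series, in duplicate.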

The mark [2] stands for this setting: Homo sapiens, BT-20, pAKT Ser473 ELISA.

Chain of PI3-Kα (P42337 whole entry, the tested form may be a part): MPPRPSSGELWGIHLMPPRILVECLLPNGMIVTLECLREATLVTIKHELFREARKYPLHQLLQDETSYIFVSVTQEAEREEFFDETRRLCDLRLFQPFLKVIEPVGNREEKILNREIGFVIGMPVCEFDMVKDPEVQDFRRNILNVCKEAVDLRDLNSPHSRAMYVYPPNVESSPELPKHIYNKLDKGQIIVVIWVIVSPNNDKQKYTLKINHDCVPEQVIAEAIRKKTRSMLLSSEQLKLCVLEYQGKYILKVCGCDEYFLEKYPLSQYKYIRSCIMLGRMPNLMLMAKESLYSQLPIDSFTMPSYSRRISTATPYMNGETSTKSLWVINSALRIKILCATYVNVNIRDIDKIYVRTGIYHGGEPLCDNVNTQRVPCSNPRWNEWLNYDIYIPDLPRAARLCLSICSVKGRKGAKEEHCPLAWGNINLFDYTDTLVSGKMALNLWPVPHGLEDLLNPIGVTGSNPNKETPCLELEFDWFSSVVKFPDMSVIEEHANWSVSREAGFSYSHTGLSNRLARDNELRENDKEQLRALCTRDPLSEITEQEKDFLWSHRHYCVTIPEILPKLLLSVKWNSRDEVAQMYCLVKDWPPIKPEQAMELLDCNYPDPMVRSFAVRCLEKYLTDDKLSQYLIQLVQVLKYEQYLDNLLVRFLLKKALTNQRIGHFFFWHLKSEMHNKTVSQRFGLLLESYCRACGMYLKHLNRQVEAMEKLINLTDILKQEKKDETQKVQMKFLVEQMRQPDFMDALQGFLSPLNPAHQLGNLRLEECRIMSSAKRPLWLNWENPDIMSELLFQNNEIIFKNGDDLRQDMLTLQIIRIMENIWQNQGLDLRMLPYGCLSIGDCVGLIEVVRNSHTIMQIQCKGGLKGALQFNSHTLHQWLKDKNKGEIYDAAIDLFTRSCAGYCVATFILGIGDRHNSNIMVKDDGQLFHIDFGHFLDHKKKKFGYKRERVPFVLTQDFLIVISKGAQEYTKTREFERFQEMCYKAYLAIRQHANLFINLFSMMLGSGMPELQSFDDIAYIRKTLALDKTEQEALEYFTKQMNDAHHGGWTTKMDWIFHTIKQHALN
Chain of PI3-Kα (P26450 whole entry partner, the tested form may be a part): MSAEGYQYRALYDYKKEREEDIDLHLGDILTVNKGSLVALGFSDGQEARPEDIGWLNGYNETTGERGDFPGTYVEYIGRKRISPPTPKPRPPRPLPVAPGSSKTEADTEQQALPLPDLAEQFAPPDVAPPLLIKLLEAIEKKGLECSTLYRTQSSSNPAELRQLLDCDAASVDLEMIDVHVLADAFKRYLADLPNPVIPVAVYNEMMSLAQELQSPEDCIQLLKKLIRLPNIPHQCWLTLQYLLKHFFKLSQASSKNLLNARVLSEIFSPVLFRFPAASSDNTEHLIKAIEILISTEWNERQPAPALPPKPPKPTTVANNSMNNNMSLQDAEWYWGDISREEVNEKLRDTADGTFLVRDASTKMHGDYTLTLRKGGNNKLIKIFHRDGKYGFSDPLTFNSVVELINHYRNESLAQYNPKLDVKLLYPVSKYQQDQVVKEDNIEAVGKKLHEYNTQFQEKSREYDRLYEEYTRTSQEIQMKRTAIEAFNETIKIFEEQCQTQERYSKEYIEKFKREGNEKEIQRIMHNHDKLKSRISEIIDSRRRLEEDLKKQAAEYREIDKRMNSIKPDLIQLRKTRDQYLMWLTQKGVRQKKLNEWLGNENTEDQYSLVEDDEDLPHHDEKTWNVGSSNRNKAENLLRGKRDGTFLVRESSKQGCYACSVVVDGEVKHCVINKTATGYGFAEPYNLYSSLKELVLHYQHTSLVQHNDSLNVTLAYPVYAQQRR

Usually IC50 stands for the concentration needed to halve the response being measured. Higher therefore signals weaker potency in that assay. Consider `Cc1nc(N)nc2c1cc(-c1cnc3[nH]ccc3c1)c(=O)n2CC1CCCO1` (stereo not drawn) [Compound 225, 2-amino-4-methyl-6-(1H-pyrrolo[2,3-b]pyridin-5-yl)-8-((tetrahydrofuran-2-yl)methyl)pyrido[2,3-d]pyrimidin-7(8H)-one], for which the IC50 is 5.4 nM on PI3-Kα and 36.6 nM in assay [1] (setting [2]).

Regarding `Cc1nc(N)nc2c1cc(-c1cn[nH]c1)c(=O)n2C1CN(C(=O)OC(C)(C)C)C1` [Compound 226, tert-butyl 3-(2-amino-4-methyl-7-oxo-6-(1H-pyrazol-4-yl)pyrido[2,3-d]pyrimidin-8(7H)-yl)azetidine-1-carboxylate], the IC50 against PI3-Kα was found to be 120 nM; in assay [1] (setting [2]), 41.5 nM.

For the molecule `COc1ccc(-c2cc3c(C)nc(N)nc3n(C3CN(C(=O)OC(C)(C)C)C3)c2=O)cn1` [Compound 227], the IC50 turned out to be 29 nM at PI3-Kα and 318 nM in assay [1] (setting [2]).

On to `Cc1nc(N)nc2c1cc(-c1cnc3[nH]ccc3c1)c(=O)n2C1CN(C(=O)OC(C)(C)C)C1` [Compound 228, tert-butyl 3-(2-amino-4-methyl-7-oxo-6-(1H pyrrolo[2,3-b]pyridin-5 yl)pyrido[2,3-d]pyrimidin-8(7H)-yl)azetidine-1-carboxylate], for which the IC50 on PI3-Kα is 38 nM; in assay [1] (setting [2]) it was 256 nM.

With `Cc1nc(N)nc2c1cc(-c1cnc(N)cn1)c(=O)n2C1CCCC1` [Compound 229, 2-amino-6-(5-aminopyrazin-2-yl)-8-cyclopentyl-4-methylpyrido[2,3-d]pyrimidin-7(8H)-one], the IC50 against PI3-Kα was 15 nM; in assay [1] (setting [2]), 17.9 nM.

`Cc1nc(N)nc2c1cc(-c1cncc(N)n1)c(=O)n2C1CCCC1` [Compound 230, 2-amino-6-(6-aminopyrazin-2-yl)-8-cyclopentyl-4-methylpyrido[2,3-d]pyrimidin-7(8H)-one]: the IC50 against PI3-Kα was 20 nM; in assay [1] (setting [2]), 33.9 nM.

As for `Cc1nc(N)nc2c1cc(-c1cccc(Cl)n1)c(=O)n2C1CCCC1` [Compound 231, 2-Amino-6-(6-chloro-pyridin-2-yl)-8-cyclopentyl-4-methyl-8H-pyrido[2,3-d]pyrimidin-7-one], the IC50 came out at 170 nM on PI3-Kα and 3450 nM in assay [1] (setting [2]).

On to `CNc1nc(C)c2cc(-c3ccc(OC)nc3)c(=O)n(CCC3CC3)c2n1` [Compound 232, 8-(2-Cyclopropyl-ethyl)-6-(6-methoxy-pyridin-3-yl)-4-methyl-2-methylamino-8H-pyrido[2,3-d]pyrimidin-7-one], for which the values for the IC50 (on PI3-Kα; in assay [1] (setting [2])) were 8.9 nM and 41.4 nM, respectively.

Take `COc1ccc(-c2cc3c(C)nc(N)nc3n(CCC3CC3)c2=O)cn1` [Compound 233, 2-Amino-8-(2-cyclopropyl-ethyl)-6-(6-methoxy-pyridin-3-yl)-4-methyl-8H-pyrido[2,3-d]pyrimidin 7-one]: the IC50 on PI3-Kα stood at 11 nM; in assay [1] (setting [2]) it was 94.2 nM.

For `CNc1nc(C)c2cc(-c3cnn(C)c3)c(=O)n(C3CCCC3)c2n1` [Compound 234, 8-Cyclopentyl-4-methyl-2-methylamino-6-(1-melhyl-1H-pyrazol-4-yl)-8H-pyrido[2,3-d]pyrimidin-7-one], the IC50 against PI3-Kα came out at 39 nM; in assay [1] (setting [2]) it was 314 nM.

Turning to `CNc1nc(C)c2cc(-c3cnn(CC(F)F)c3)c(=O)n(C3CCCC3)c2n1` [Compound 236, 8-Cyclopentyl-6-[1-(2,2-difluoro-ethyl)-1H pyrazol-4-yl]-4-methyl 2-methylamino-8H-pyrido[2,3 d]pyrimidin-7-one], the 50% inhibitory concentration (IC50) on PI3-Kα turned out to be 46 nM; in assay [1] (setting [2]) it was 10000 nM.

On to `Cc1nc(N)nc2c1cc(-c1cnn(CC(F)F)c1)c(=O)n2C1CCCC1` [Compound 237, 2-Amino-8-cyclopentyl-6-[1-(2,2-drfluoro-ethyl)-1H-pyrazol-4-yl]-4-methyl 8H-pyrido[2,3-d]pyrimidin-7-one], for which the results for the IC50 (on PI3-Kα; in assay [1] (setting [2])) were 12 nM and 397 nM, respectively.

Regarding `COc1ccc(-c2cc3c(C)nc(N)nc3n(CCN)c2=O)cn1` [Compound 238, 2-Amino-8-(2-amino-ethyl)-6-(6-methoxy-pyridin-3-yl)-4-methyl-8H-pyrido[2,3-d]pyrimidin-7-one], the values for the IC50 (against PI3-Kα; in assay [1] (setting [2])) were 340 nM and 4530 nM, respectively.

For `Cc1nc(N)nc2c1cc(-c1cnn(CC(C)(C)O)c1)c(=O)n2C1CCCC1` [Compound 240, 2-Amino-8-cyclopentyl-6-[1-(2-hydroxy-2-methyl-propyl)-1H-pyrazol-4-yl]-4-methyl-8H-pyrido[2,3-d]pyrimidin-7-one], the IC50 against PI3-Kα came out at 89 nM; in assay [1] (setting [2]) it was 101 nM.

As to `COc1ccc(-c2cc3c(C)nc(N)nc3n(CC3CCOCC3)c2=O)cn1` [Compound 242, 2-Amino-6-(6-methoxy-pyridin-3-yl)-4-methyl-8-(tetrahydro-pyran-4-ylmethyl)-8H-pyrido[2,3-d]pyrimidin-7-one], the IC50 against PI3-Kα is 15 nM; in assay [1] (setting [2]) it was 88.4 nM.

Regarding `COc1ccc(-c2cc3c(C)nc(N)nc3n(CC3(F)CCOCC3)c2=O)cn1` [Compound 243, 2-Amino-8-(4-fluoro-tetrahydro-pyran-4-ylmethyl)-6-(6-methoxy-pyridin-3-yl)-4-methyl-8H-pyrido[2,3-d]pyrimidin 7-one], the 50% inhibitory concentration (IC50) worked out at 18 nM at PI3-Kα and 316 nM in assay [1] (setting [2]).

For the molecule `COc1ccc(-c2cc3c(C)nc(N)nc3n(CC(C)(C)F)c2=O)cn1` [Compound 244, 2-Amino-8-(2-fluoro-2-methyl-propyl)-6-(6-methoxy-pyridin-3-yl)-4-methyl-8H-pyrido[2,3-d]pyrimidin-7-one], the IC50 against PI3-Kα worked out at 30 nM; in assay [1] (setting [2]), 437 nM.

As to `CNc1nc(C)c2cc(-c3c[nH]c(C)n3)c(=O)n(C3CCCC3)c2n1` [Compound 245, 8-Cyclopentyl-4-methyl-2-methylamino-6-(2-methyl-1H-imidazol-4-yl)-8H-pyrido[2,3-d]pyrimidin-7-one], the figures for the IC50 (at PI3-Kα; in assay [1] (setting [2])) were 67 nM and 181 nM, respectively.

Turning to `COc1ccc(-c2cc3c(C)nc(N)nc3n(C3CCN(C(=O)OC(C)(C)C)C3)c2=O)cn1` (stereo not drawn) [Compound 246, 3-[2-Amino-6-(6-methoxy-pyridin-3-yl)-4-methyl-7-oxo-7H-pyrido[2,3-d]pyrimidin 8-yl]-pyrrolidine-1-carboxylic acid tert-butyl ester], the values for the IC50 (against PI3-Kα; in assay [1] (setting [2])) were 27 nM and 172 nM, respectively.

As for `COc1ccc(-c2cc3c(C)nc(N)nc3n(C3CCNC3)c2=O)cn1` (stereo not drawn) [Compound 247, 2-Amino-6-(6-methoxy-pyridin-3-yl)-4-methyl-8-pyrrolidin-3-yl-8H-pyrido[2,3-d]pyrimidin-7-one], the IC50 against PI3-Kα worked out at 200 nM; in assay [1] (setting [2]), 671 nM.

Take `COc1ccc(-c2cc3c(C)nc(N)nc3n(C3CCN(C(C)=O)C3)c2=O)cn1` (stereo not drawn) [Compound 248, 8-(1-Acetyl-pyrrolidin-3-yl)-2-amin-6-(6-methoxy-pyridin-3-yl)-4-methyl-8H-pyrido[2,3-d]pyrimidin-7-one]: the IC50 on PI3-Kα was 7 nM; in assay [1] (setting [2]) it was 127 nM.

Consider `CNc1nc(C)c2cc(C(=O)Nc3cc[nH]n3)c(=O)n(C3CCCC3)c2n1` [Compound 250, 8-Cyclopentyl-4-methyl-2-methylamino-7-oxo-7,8-dihydro-pyrido[2,3-d]pyrimidine-6-carboxylic acid (1H-pyrazol-3-yl)-amide], for which the IC50 stood at 2.34 nM at PI3-Kα and 16.4 nM in assay [1] (setting [2]).

Consider `Cc1nc(N)nc2c1cc(C(=O)Nc1ccn[nH]1)c(=O)n2[C@H]1CC[C@H](O)CC1` [Compound 251, 2-Amino-8-(trans-4-hydroxycyclohexyl)-4-methyl-7-oxo-N-1H-pyrazol-5-yl-7,8-dihydropyrido[2,3-d]pyrimidine-6-carboxamide], for which the IC50 against PI3-Kα worked out at 0.59 nM; in assay [1] (setting [2]), 28.3 nM.

For `Cc1nc(N)nc2c1cc(-c1ccc(N3CCCC3)nc1)c(=O)n2[C@H]1CC[C@H](O)CC1` [Compound 253, 2-amino-8-(trans-4-hydroxycyclohexyl)-4-methyl-6-(6-pyrrolidin-1-ylpyridin-3-yl)pyrido[23-d]pyrimidin-7(8H)-one], the IC50 against PI3-Kα was found to be 19 nM; in assay [1] (setting [2]), 4.92 nM.

Regarding `COc1ncc(-c2cc3c(C)nc(N)nc3n(C3CCCC3)c2=O)cn1` [Compound 255, 2-amino-8-cyclopentyl-6-(2-methoxypyrimidin-5-yl)-4-methylpyrido[23-d]pyrimidin-7(8H)-one], the values for the IC50 (against PI3-Kα; in assay [1] (setting [2])) were 2 nM and 9.57 nM, respectively.

Turning to `Cc1nc(N)nc2c1cc(-c1cccc(CO)c1)c(=O)n2C1CCCC1` [Compound 256], the half-inhibitory concentration (IC50) against PI3-Kα is 3.1 nM; in assay [1] (pAKT Ser473 ELISA), 20.2 nM.

For the molecule `Cc1cc(-c2cc3c(C)nc(N)nc3n(C3CCCC3)c2=O)cnc1N(C)C` [Compound 257, 2-amino-8-cyclopentyl-6-[6-(dimethylamino)-5-methylpyridin-3-yl]-4-methylpyrido[23-d]pyrimidin-7(8H)-one], the IC50 against PI3-Kα came out at 11 nM; in assay [1] (setting [2]), 23.1 nM.

Take `Cc1nc(N)nc2c1cc(-c1ccc(N3CCCC3)nc1)c(=O)n2C1CCCC1` [Compound 258, 2-amino-8-cyclopentyl-4-methyl-6-(6-pyrrolidin-1-ylpyridin-3-yl)pyrido[23-d]pyrimidin-7(8H)-one]: the IC50 worked out at 88 nM against PI3-Kα and 26.5 nM in assay [1] (setting [2]).

Regarding `COc1ncc(-c2cc3c(C)nc(N)nc3n(C3CCOCC3)c2=O)cn1` [Compound 259, 2-amino-6-(2-methoxypyrimidin-5-yl)-4-methyl-8-(tetrahydro-2H-pyran-4-yl)pyrido[23-d]pyrimidin-7(8H)-one], the IC50 on PI3-Kα amounted to 45 nM; in assay [1] (setting [2]), 26.7 nM.

Take `Cc1nc(N)nc2c1cc(-c1cccc(CO)c1)c(=O)n2C1CCOCC1` [Compound 260, 2-amino-6-[3-(hydroxymethyl)phenyl]-4-methyl-8-(tetrahydro-2H-pyran-4-yl)pyrido[23-d]pyrimidin-7(8H)-one]: the IC50 on PI3-Kα was 3.9 nM; in assay [1] (setting [2]), 33.2 nM.
